The subject of this assay is eNOS. Put plainly: Cardiac eNOS mRNA (RT-PCR) and protein (Western blot) expression after treatment. It counts as in vivo, mouse. To be noted: 0.7 mg/kg IP. How it is done: Adult male outbred ICR mice were supplied by Harlan Inc (Indianapolis, Ind.). Viagra pills (Pfizer Inc) were ground into powder and dissolved in saline. The drug solution was filtered (0.45-μm pore size) before intraperitoneal injection. 1400W, an iNOS inhibitor, was obtained from Alexis. We used an isolated perfused mouse heart model subjected to 20 minutes of global ischemia and 30 minutes of reperfusion (Langendorff mode). Myocardial I-R injury was assessed by measuring infarct size, contractile function, and coronary flow as described previously (Xi, 1999). Twenty-eight mice were randomized into the following 4 groups: (n=6 to 9 per group): (1) saline (0.15 mL IP), (2) sildenafil (0.7 mg/kg IP, equivalent to 50 mg Viagra pill used for patients with erectile dysfunction, given 24 hours before I-R), (3) sildenafil+1400W (10 mg/kg IP, 14 given 30 minutes before I-R), and (4) saline+1400W. Measurement of NOS Isoforms Mice were treated with sildenafil (0.7 mg/kg IP), and their hearts were removed at 15, 30, and 45 minutes and 1, 2, 3, 4, and 24 hours after injection (n=3 per group). […] The target bands were identified on the basis of their specific size using DNA standards. iNOS and eNOS proteins were measured by Western blots as described previously. […] The mRNA and protein expression were quantified by scanning each of the RT-PCR or Western blot band using a densitometer (Bioquant 98). […]
(In general: Immunoblotting shows a protein as a band on a membrane.)

Turning to `CCCc1nn(C)c2c(=O)[nH]c(-c3cc(S(=O)(=O)N4CCN(C)CC4)ccc3OCC)nc12` [sildenafil], the “eNOS mRNA and protein expression” value was “increase”; the “time of peak eNOS mRNA level” value came out at 45 min.

The values are drawn from patent US7091207B2, “Method of treating myocardial infarction with PDE-5 inhibitors” (Virginia Commonwealth University, priority 2002, dated 2006).
